Results as given in US20250144166A1, “COMPOSITIONS AND METHODS FOR INHIBITING RHO KINASE” (INTERLUDE BIOPHARMA CO., priority 2022, published 2025).
“Also recorded” adds a separate entry of the source. Where two headings read alike, the source gives them in different places.

Key:
C2BBe1 cells [1] = experiment: TEER in A/R-injured C2BBe1 cells with MLCK and ROCK inhibitors with or without LA; format: cell-based, human; settings: 10 mM LA, 1 μM Y-27632 dihydrochloride, 400 μM Peptide 18; A/R injury; FIG. 7
Method: To evaluate barrier function, the TEER was measured in A/R-injured C2BBe1 cells treated with or without LA.

C2BBe1 intestinal cells = settings: 10 mM LA; A/R injury; compared to non-treated A/R injured cells
Method: Specifically, to evaluate barrier function, transepithelial electrical resistance (TEER) was measured in anoxia/reoxygenation (A/R)-injured C2BBe1 (Caco-2 brush border-expressing Caco-2) cells treated with or without larazotide acetate (LA). Monolayers of C2BBe1 were treated with LA (0.001, 0.1, 1, and 10 mM) and were subjected to anoxia for 2 hours followed by reoxygenation with 21% O2. To generate A/R injury, C2BBe1 cells were placed in a modular incubator chamber (Billups-Rothenberg, San Diego, CA) and flushed with 95% N2/5% CO2 for 5 minutes. The modular chamber was then sealed airtight and placed in an incubator for 2 hours. After 2 hours, the cells were removed from the modular incubator chamber and placed in a 21% O2 normal environment. TEER was measured to assess barrier function during A/R injury and recovery. The TEER was measured using a Chopstick Electrode Set (WPI, LLC, Sarasota, FL) on the basal and apical sides of a monolayer and attached to an Epithelial Volt Ohm Meter2 (WPI, LLC, Sarasota, FL).

ZO-1, occludin, F-actin = system: ZO-1, occludin, F-actin
Method: (§1) Specifically, the distribution of tight junction proteins and actin structure was evaluated using western blots on membrane and cytosol fractions and immunofluorescence microscope analysis. Mem-PER Eukaryotic Membrane Protein Extraction Reagent Kit (Thermo Scientific) was used to fractionate membrane and cytosolic compartment. The extracted proteins were blotted with primary antibodies anti-ZO-1 and anti-occludin (Invitrogen). The cold methanol fixed monolayers were stained with primary antibodies (ZO-1 and occludin) and phalloidin (F-actin) for immunofluorescence microscope analysis. The stained monolayers were examined with an Olympus IX83 Inverted Motorized Microscope with cellSens software (Olympus, Tokyo, Japan). pMLC-2/MLC-2 expression was evaluated using western blot analysis with primary antibodies for pMLC-2 and MLC-2 (CST, Danvers, MA).

tight junction proteins = settings: 10 mM LA
Method: as §1

C2BBe1 = system: C2BBe1
Method: Specifically, monolayers of C2BBe1 were treated with 10 mM LA and were subjected to anoxia for 2 hours followed by reoxygenation with 21% O2 for 1 hour. Next-generation RNA sequencing and biostatistical analyses were employed to assess cellular regulatory pathways.

C2BBe1 cells [2] = settings: 10 mM LA
Method: For barrier function analysis, TEER was measured in monolayers of C2BBe1 cells treated with or without 10 mM LA. TEER was measured using a Chopstick Electrode Set (WPI, LLC, Sarasota, FL) on the basal and apical sides of a monolayer and attached to an Epithelial Volt Ohm Meter2 (WPI, LLC, Sarasota, FL).

C2BBe1 cells [3] = settings: 10 mM LA; regular media; 48 hours
Method: This experiment evaluated the role of LA in proliferation and migration. Specifically, proliferation of non-treated or LA-treated (10 mM) C2BBe1 cells was evaluated by the CCK-8 assay kit (Dojindo Molecular Technologies, Rockville, MD) according to the manufacturer's instructions. 10 mM LA was treated every other day to cells seeded in 96-well culture plates. Viable cells were evaluated with the CCK-8 Assay Kit for five consecutive days. Migration was assessed by seeding C2BBe1 cells in 3 well culture-inserts (ibidi GmbH, Gräfelfing, Germany) and removing the inserts after reaching confluence to create a “wound” in the cell monolayer. 10 mM LA was added to serum-free and regular media to assess migration and proliferation, respectively. Images were captured at 0, 4, 8, 24, and 48 hours with Axio Vert A1 microscope (Carl Zeiss AG, Oberkochen, Germany) and closing of the wound was analyzed by measuring migration distance with ImageJ software.

[4] = anoxic cells vs. exposed to LA for 3 h
[5] = control vs. exposed to LA for 3 h

O=S(=O)(c1cccc2cnccc12)N1CCCNCC1 [Fasudil]
TEER compared to non-treated A/R injured cells (C2BBe1 cells [1]): increased TEER

larazotide acetate
TEER (C2BBe1 intestinal cells): significantly (p<0.001) increases the TEER; also recorded: significantly increased (p<0.001) | F-actin structure during A/R injury (ZO-1, occludin, F-actin; 10 mM LA, FIG. 4): protected | localization of tight junction and cytoskeleton proteins (ZO-1, occludin, F-actin) by immunofluorescence (ZO-1, occludin, F-actin; 1-hour reoxygenation, versus non-treated anoxic injured cells): revealed well-organized tight junction proteins and F-actin | occludin in the membrane fraction (immunoblotting) (tight junction proteins; 1-hour reoxygenation, compared to non-treated anoxic injured cells): significantly (p<0.05) increased in the membrane | disruption of tight junction proteins during A/R injury (tight junction proteins; FIG. 3): prevented disruption of tight junction proteins | translational processes (GO analysis) (C2BBe1; LA-treated cells compared to non-treated cells): significantly increased | Expression compared to control: AMOTL2 (C2BBe1; [4]): Down | Expression compared to control: EGR1 (C2BBe1; [4]): Down | Expression compared to control: HES1 (C2BBe1; [4]): Down | Expression compared to control: HSPH1 (C2BBe1; [4]): Down | Expression compared to control: JPH2 (C2BBe1; [4]): Up | Expression compared to control: NDRG1 (C2BBe1; [4]): Up | Expression compared to control: PFKFB4 (C2BBe1; [4]): Up | Expression compared to control: SAMD5 (C2BBe1; [4]): Down | Expression compared to control: SLC2A3 (C2BBe1; [4]): Up | Expression compared to control: TNS1 (C2BBe1; [4]): Up | Ras/Rho GTPase-binding and protein serine/threonine kinase activity (GO analysis) (C2BBe1; cells treated with LA, FIG. 10): differentially expressed | Expression compared to control: CEBPB (C2BBe1; [5]): Up | Expression compared to control: DDIT4 (C2BBe1; [5]): Up | Expression compared to control: EGR1 (C2BBe1; [5]): Up | Expression compared to control: H1F0 (C2BBe1; [5]): Up | Expression compared to control: ID2 (C2BBe1; [5]): Up | Expression compared to control: IGFBP4 (C2BBe1; [5]): Down | Expression compared to control: ITGA2 (C2BBe1; [5]): Down | Expression compared to control: MAT2A (C2BBe1; [5]): Down | Expression compared to control: SAMD5 (C2BBe1; [5]): Down | Expression compared to control: SYTL2 (C2BBe1; [5]): Down | TEER (C2BBe1 cells [2]; compared to non-treated A/R injured cells at 1 hour after treatment (FIG. 12 legend)): significantly increased TEER | TEER (C2BBe1 cells [2]; normal conditions, FIG. 12): increased TEER | wound healing (C2BBe1 cells [3]): significantly increased wound healing
